Results: US9085555B2, “Complement pathway modulators and uses thereof” (priority 2011, dated 2015)
Read-outs that look alike come from different tables or passages of the source.

Molecular target: Factor D (Homo sapiens (Human), UniProt P00746)
Assay: biochemical
Type: biochemical

Sequence of Factor D (P00746 26-253): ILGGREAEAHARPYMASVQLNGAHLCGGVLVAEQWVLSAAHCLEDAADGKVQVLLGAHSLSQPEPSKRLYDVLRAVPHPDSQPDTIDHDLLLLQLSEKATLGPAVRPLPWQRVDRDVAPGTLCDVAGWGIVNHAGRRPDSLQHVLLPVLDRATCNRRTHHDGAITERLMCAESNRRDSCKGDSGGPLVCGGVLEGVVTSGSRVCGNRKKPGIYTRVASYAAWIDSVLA

Structure (SMILES): COc1ccc2c(c1)c(C(C)=O)cn2CC(=O)N1C[C@H](F)[C@@H](OC)[C@H]1C(=O)NCc1cccc(Cl)c1F [Example 485, (2S,3S,4S)-1-[2-(3-Acetyl-5-methoxy-indol-1-yl)-acetyl]-4-fluoro-3-methoxy-pyrrolidine-2-carboxylic acid 3-chloro-2-fluoro-benzylamide]
- IC50 (read-out: IC50): 15 nM

Structure (SMILES): NC(=O)c1cn(CC(=O)N2C[C@H](F)C[C@H]2C(=O)Nc2cccc(Cl)c2F)c2ccccc12 [Example 486, 1-{2-[(2S,4R)-2-(3-Chloro-2-fluoro-phenylcarbamoyl)-4-fluoro-pyrrolidin-1-yl]-2-oxo-ethyl}-1H-indole-3-carboxylic acid amide]
- IC50 (read-out: IC50): 2450 nM

Structure (SMILES): COc1ccc2c(C(C)=O)cn(CC(=O)N3C[C@H](F)[C@@H](OC)[C@H]3C(=O)NCc3cccc(Cl)c3F)c2c1 [Example 487, (2S,3S,4S)-1-[2-(3-Acetyl-6-methoxy-indol-1-yl)-acetyl]-4-fluoro-3-methoxy-pyrrolidine-2-carboxylic acid 3-chloro-2-fluoro-benzylamide]
- IC50 (read-out: IC50): 13 nM

Structure (SMILES): NC(=O)c1cn(CC(=O)N2C[C@H](F)C[C@H]2C(=O)NCc2cccc(Cl)c2F)c2ccc(Cl)cc12 [Example 488, 5-Chloro-1-{2-[(2S,4R)-2-(3-chloro-2-fluoro-benzylcarbamoyl)-4-fluoro-pyrrolidin-1-yl]-2-oxo-ethyl}-1H-indole-3-carboxylic acid amide]
- IC50 (read-out: IC50): 250 nM

Structure (SMILES): NC(=O)c1cn(CC(=O)N2C[C@H](F)C[C@H]2C(=O)NCc2cccc(Cl)c2F)c2c(Cl)cccc12 [Example 489, 7-Chloro-1-{2-[(2S,4R)-2-(3-chloro-2-fluoro-benzylcarbamoyl)-4-fluoro-pyrrolidin-1-yl]-2-oxo-ethyl}-1H-indole-3-carboxylic acid amide]
- IC50 (read-out: IC50): 124 nM

Structure (SMILES): COC[C@@]12C[C@@H](C(=O)NCc3cccc(Cl)c3F)N(C(=O)Cn3cc(C(C)=O)c4cccnc43)[C@@H]1C2 [Example 490, (1R,3S,5S)-2-[2-(3-Acetyl-pyrrolo[2,3-b]pyridin-1-yl)-acetyl]-5-methoxymethyl-2-aza-bicyclo[3.1.0]hexane-3-carboxylic acid 3-chloro-2-fluoro-benzylamide]
- IC50 (read-out: IC50): 214 nM

Structure (SMILES): NC(=O)c1cn(CC(=O)N2C[C@H](F)C[C@H]2C(=O)NCc2cccc(Cl)c2F)c2cc(Cl)ccc12 [Example 491, 6-Chloro-1-{2-[(2S,4R)-2-(3-chloro-2-fluoro-benzyl-carbamoyl)-4-fluoro-pyrrolidin-1-yl]-2-oxo-ethyl}-1H-indole-3-carboxylic acid amide]
- IC50 (read-out: IC50): 28 nM

Structure (SMILES): NC(=O)c1cn(CC(=O)N2C[C@H](F)C[C@H]2C(=O)NCc2cccc(Cl)c2F)c2cc(F)c(F)cc12 [Example 492, 1-{2-[(2S,4R)-2-(3-Chloro-2-fluoro-benzylcarbamoyl)-4-fluoro-pyrrolidin-1-yl]-2-oxo-ethyl}-5,6-difluoro-1H-indole-3-carboxylic acid amide]
- IC50 (read-out: IC50): 237 nM

Structure (SMILES): COc1cnc2c(c1)c(C(C)=O)cn2CC(=O)N1[C@@H]2C[C@@H]2C[C@H]1C(=O)NCc1cccc(Cl)c1F [Example 494, (1R,3S,5R)-2-[2-(3-Acetyl-5-methoxy-pyrrolo[2,3-b]pyridin-1-yl)-acetyl]-2-aza-bicyclo [3.1.0]hexane-3-carboxylic acid 3-chloro-2-fluoro-benzylamide]
- IC50 (read-out: IC50): 50 nM

Structure (SMILES): O=C(NCc1cccc(Cl)c1F)[C@@H]1C[C@H]2C[C@H]2N1C(=O)Cn1cc(C(=O)C(F)(F)F)c2ccccc21 [Example 495, (1R,3S,5R)-2-{2-[3-(2,2,2-Trifluoro-acetyl)-indol-1-yl]-acetyl}-2-aza-bicyclo[3.1.0] hexane-3-carboxylic acid 3-chloro-2-fluoro-benzylamide]
- IC50 (read-out: IC50): 19 nM

Structure (SMILES): C[C@@]1(F)C[C@@H](C(=O)NCc2cccc(Cl)c2F)N(C(=O)Cn2cc(C(N)=O)c3ccccc32)C1 [Example 496, 1-{2-[(2S,4R)-2-(3-Chloro-2-fluoro-benzylcarbamoyl)-4-fluoro-4-methyl-pyrrolidin-1-yl]-2-oxo-ethyl}-1H-indole-3-carboxylic acid amide]
- IC50 (read-out: IC50): 176 nM

Structure (SMILES): COc1ccc2c(c1)c(C(N)=O)cn2CC(=O)N1C[C@H](F)C[C@H]1C(=O)NCc1cccc(Cl)c1F [Example 497, 1-{2-[(2S,4R)-2-(3-Chloro-2-fluoro-benzylcarbamoyl)-4-fluoro-pyrrolidin-1-yl]-2-oxo-ethyl}-5-methoxy-1H-indole-3-carboxylic acid amide]
- IC50 (read-out: IC50): 128 nM

Structure (SMILES): CC(=O)c1cn(CC(=O)N2C[C@H](F)C[C@H]2C(=O)NCc2cc(C#N)cc(Cl)c2F)c2ccccc12 [Example 498, (2S,4R)-1-[2-(3-Acetyl-indol-1-yl)-acetyl]-4-fluoro-pyrrolidine-2-carboxylic acid 3-chloro-5-cyano-2-fluoro-benzylamide]
- IC50 (read-out: IC50): 692 nM

Structure (SMILES): COc1ccc2c(C(N)=O)cn(CC(=O)N3C[C@H](F)C[C@H]3C(=O)NCc3cccc(Cl)c3F)c2c1 [Example 499, 1-{2-[(2S,4R)-2-(3-Chloro-2-fluoro-benzylcarbamoyl)-4-fluoro-pyrrolidin-1-yl]-2-oxo-ethyl}-6-methoxy-1H-indole-3-carboxylic acid amide]
- IC50 (read-out: IC50): 36 nM

Structure (SMILES): COc1ccc2c(C(C)=O)cn(CC(=O)N3C[C@H](F)C[C@H]3C(=O)NCc3cccc(Cl)c3F)c2c1 [Example 500, (2S,4R)-1-[2-(3-Acetyl-6-methoxy-indol-1-yl)-acetyl]-4-fluoro-pyrrolidine-2-carboxylic acid 3-chloro-2-fluoro-benzylamide]
- IC50 (read-out: IC50): 36 nM

Structure (SMILES): COc1ccc2c(c1)c(C(C)=O)cn2CC(=O)N1CCCC[C@H]1C(=O)NCc1cccc(Cl)c1F [Example 501, (S)-1-[2-(3-Acetyl-5-methoxy-indol-1-yl)-acetyl]-piperidine-2-carboxylic acid 3-chloro-2-fluoro-benzylamide]
- IC50 (read-out: IC50): 471 nM

Structure (SMILES): CC(=O)c1cn(CC(=O)N2C[C@](C)(F)C[C@H]2C(=O)NCc2cccc(Cl)c2F)c2ccncc12 [Example 502, (2S,4R)-1-[2-(3-Acetyl-pyrrolo[3,2-c]pyridin-1-yl)-acetyl]-4-fluoro-4-methyl-pyrrolidine-2-carboxylic acid 3-chloro-2-fluoro-benzylamide]
- IC50 (read-out: IC50): 449 nM

Structure (SMILES): CC(=O)c1cn(CC(=O)N2[C@@H]3C[C@@H]3C[C@H]2C(=O)N[C@H](CCO)c2cccc(Cl)c2F)c2ccccc12 [Example 504, (1R,3S,5R)-2-[2-(3-Acetyl-indol-1-yl)-acetyl]-2-aza bicyclo[3.1.0]hexane-3-carboxylic acid [(R)-1-(3-chloro-2-fluoro-phenyl)-3-hydroxy-propyl]-amide]
- IC50 (read-out: IC50): 57 nM

Structure (SMILES): CO[C@H]1[C@@H](C(=O)NCc2cccc(Cl)c2F)N(C(=O)Cn2cc(C(C)=O)c3ccccc32)C[C@@H]1F [Example 505, (2S,3S,4S)-1-[2-(3-Acetyl-indol-1-yl)-acetyl]-4-fluoro-3-methoxy-pyrrolidine-2-carboxylic acid 3-chloro-2-fluoro-benzylamide]
- IC50: 14 nM

Structure (SMILES): CC(=O)c1cn(CC(=O)N2C[C@H]3C[C@H]3[C@H]2C(=O)NCc2cccc(Cl)c2F)c2cnccc12 [Example 506, (1R,2S,5S)-3-[2-(3-Acetyl-pyrrolo[2,3-c]pyridin-1-yl)-acetyl]-3-aza-bicyclo[3.1.0] hexane-2-carboxylic acid 3-chloro-2-fluoro-benzylamide]
- IC50 (read-out: IC50): 331 nM

Structure (SMILES): CC(=O)c1cn(CC(=O)N2C[C@H](F)C[C@H]2C(=O)NCc2cccc(Cl)c2F)c2ccccc12 [Example 507, (2S,4R)-1-[2-(3-Acetyl-indol-1-yl)-acetyl]-4-fluoro-pyrrolidine-2-carboxylic acid 3-chloro-2-fluoro-benzylamide]
- IC50 (read-out: IC50): 16 nM

Structure (SMILES): CC(=O)c1cn(CC(=O)N2C[C@H](F)C[C@H]2C(=O)NCc2cccc(Cl)c2F)c2ccc(OCc3ccccc3)cc12 [Example 508, (2S,4R)-1-[2-(3-Acetyl-5-benzyloxy-indol-1-yl)-acetyl]-4-fluoro-pyrrolidine-2-carboxylic acid 3-chloro-2-fluoro-benzylamide]
- IC50 (read-out: IC50): 12 nM

Structure (SMILES): CC(=O)c1cn(CC(=O)N2C[C@H](F)C[C@H]2C(=O)NCc2cccc(Cl)c2F)c2cc(OC(F)(F)F)ccc12 [Example 509, (2S,4R)-1-[2-(3-Acetyl-6-trifluoromethoxy-indol-1-yl)-acetyl]-4-fluoro-pyrrolidine-2-carboxylic acid 3-chloro-2-fluoro-benzylamide]
- IC50 (read-out: IC50): 58 nM

Structure (SMILES): CC(=O)c1cn(CC(=O)N2[C@@H]3C[C@@H]3C[C@H]2C(=O)NCc2cccc(Cl)c2F)c2ccccc12 [Example 510, (1R,3S,5R)-2-[2-(3-Acetyl-indol-1-yl)-acetyl]-2-aza-bicyclo[3.1.0]hexane-3-carboxylic acid 3-chloro-2-fluoro-benzylamide]
- IC50 (read-out: IC50): 16 nM

Structure (SMILES): CC(=O)c1cn(CC(=O)N2C[C@](C)(F)C[C@H]2C(=O)NCc2cccc(Cl)c2F)c2ccccc12 [Example 511, (2S,4R)-1-[2-(3-Acetyl-indol-1-yl)-acetyl]-4-fluoro-4-methyl-pyrrolidine-2-carboxylic acid 3-chloro-2-fluoro-benzylamide]
- IC50 (read-out: IC50): 71 nM

Structure (SMILES): CC(=O)c1cn(CC(=O)N2[C@@H]3CC[C@@H](C3)[C@H]2C(=O)NCc2cccc(Cl)c2F)c2ccccc12 [Example 512, (1R,3S,4S)-2-[2-(3-Acetyl-indol-1-yl)-acetyl]-2-aza-bicyclo[2.2.1]heptane-3-carboxylic acid 3-chloro-2-fluoro-benzylamide]
- IC50 (read-out: IC50): 411 nM

Structure (SMILES): CC(=O)c1cn(CC(=O)N2CCS[C@H]2C(=O)NCc2cccc(Cl)c2F)c2ncccc12 [Example 513, (S)-3-[2-(3-Acetyl-pyrrolo[2,3-b]pyridin-1-yl)-acetyl]-thiazolidine-2-carboxylic acid 3-chloro-2-fluoro-benzylamide]
- IC50 (read-out: IC50): 193 nM

Structure (SMILES): CC(=O)c1cn(CC(=O)N2C[C@H](F)C[C@H]2C(=O)Nc2cccc(OC(F)(F)F)c2F)c2ccccc12 [Example 514, (2S,4R)-1-[2-(3-Actyl-indol-1-yl)-acetyl]-4-fluoro-pyrrolidine-2-carboxylic acid (2-fluoro-3-trifluoromethoxy-phenyl)-amide]
- IC50 (read-out: IC50): 95 nM

Structure (SMILES): CC(=O)c1cn(CC(=O)N2[C@@H]3C[C@@H]3C[C@H]2C(=O)Nc2cc(Br)cc(-c3nnn[nH]3)c2)c2ccccc12 [Example 515, (1R,3S,5R)-2-[2-(3-Acetyl-indol-1-yl)-acetyl]-2-aza-bicyclo[3.1.0]hexane-3-carboxylic acid [3-bromo-5-(2H-tetrazol-5-yl)-phenyl]-amide]
- IC50 (read-out: IC50): 268 nM
